Data as given in US9840515B2, “Protein kinase D inhibitors” (University of Pittsburgh—Of the Commonwealth System of …, priority 2010, dated 2017).
Where two headings read alike, the source gives them in different places.

What was measured:
PKD1 [1] = target: T1, PKD1 (Homo sapiens, UniProt Q15139); assay: IMAP-FP PKD1 assay; type: biochemical
T1 sequence (Q15139 1-912): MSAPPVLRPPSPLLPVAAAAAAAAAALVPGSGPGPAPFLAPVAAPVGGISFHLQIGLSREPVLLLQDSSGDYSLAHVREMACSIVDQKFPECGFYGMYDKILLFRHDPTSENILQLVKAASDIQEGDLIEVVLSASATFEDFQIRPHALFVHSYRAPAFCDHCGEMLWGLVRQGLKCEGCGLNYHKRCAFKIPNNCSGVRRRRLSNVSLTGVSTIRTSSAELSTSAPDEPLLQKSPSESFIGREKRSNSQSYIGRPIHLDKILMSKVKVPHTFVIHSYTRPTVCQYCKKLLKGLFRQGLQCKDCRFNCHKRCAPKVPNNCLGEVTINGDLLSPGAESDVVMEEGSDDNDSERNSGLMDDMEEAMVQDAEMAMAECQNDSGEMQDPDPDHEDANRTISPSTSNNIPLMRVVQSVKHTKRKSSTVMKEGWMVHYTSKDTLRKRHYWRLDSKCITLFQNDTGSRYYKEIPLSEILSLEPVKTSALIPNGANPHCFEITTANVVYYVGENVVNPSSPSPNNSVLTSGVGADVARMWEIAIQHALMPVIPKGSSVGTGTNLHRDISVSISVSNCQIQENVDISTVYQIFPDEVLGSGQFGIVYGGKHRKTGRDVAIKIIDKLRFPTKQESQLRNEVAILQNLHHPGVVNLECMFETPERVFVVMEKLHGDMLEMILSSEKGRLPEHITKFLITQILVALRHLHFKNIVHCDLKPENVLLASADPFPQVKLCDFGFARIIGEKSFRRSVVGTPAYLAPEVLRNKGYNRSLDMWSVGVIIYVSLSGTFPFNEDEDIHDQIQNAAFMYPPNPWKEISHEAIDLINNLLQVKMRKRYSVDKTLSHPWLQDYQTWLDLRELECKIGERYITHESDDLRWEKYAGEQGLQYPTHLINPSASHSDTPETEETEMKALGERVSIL
Excerpt: See Sharlow, E. R., et. al., J Biol Chem, 283: 33516-33526, (2008). The assay established the concentration of inhibitor that is required to reduce PKD1 activity by 50% (IC50), as shown in Table 2 above.

[2] = target: T2, purified recombinant human PKD1 (Homo sapiens, UniProt Q15139); assay: radiometric PKD kinase activity assay; type: biochemical
T2 sequence (Q15139 1-912): T1 sequence (Q15139 1-912)
Method: The radiometric PKD kinase assay was carried out by co-incubating 0.5 μCi γ-32P-ATP (PerkinElmer, Boston, Mass.), 20 μM ATP, 50 ng purified recombinant human PKD (PKD1, PKD2, PKD3) proteins, and 2.5 μg Syntide-2 (Sigma) in 50 μl kinase buffer that contains 50 mM Tris-HCl, pH 7.5, 4 mM MgCl2, 10 mM β-mercaptoethanol. The reaction was carried out under sub-saturation conditions, such that the initial rate was within linear kinetic range. The reaction mixture was incubated at 30° C. for 10 min, followed by spotting 25 μl of the mix onto a Whatman P81 filter paper (Whatman Inc, Clifton, N.J.). The filter papers were then washed three times in 0.5% phosphoric acid, air-dried, and counted using a Beckman LS6500 multi-purpose scintillation counter (Beckman, Fullerton, Calif.).

PKD1 [3] = target: T1, PKD1; assay: Cellular inhibition of PMA-induced PKD1 S916 autophosphorylation in LNCaP cells (Western blot densitometry); type: cell-based; parameters: endogenous in cells; host or cells: LNCaP prostate cancer cells; settings: for IC50: PKD1 autophosphorylation at S916 in LNCaP cells
Method: The compound to be tested was dissolved in DMSO at an initial concentration of 10 mM. LNCaP prostate cancer cells were pre-treated with DMSO or increasing concentrations of the compound for 45 min, followed by treatment with or without 100 nM phorbol 12-myristate 13-acetate (PMA), an activator of PKD, for 20 min. The cells were harvested for Western blot analysis.
Briefly, cells were lysed in lysis buffer containing 200 mM Tris-HCl, pH 7.4, 100 μM 4-(2-aminoethyl)benzenesulfonyl fluoride, 1 mM EGTA, and 1% Triton X-100. Protein concentration was determined using the BCA Protein Concentration Assay reagent kit (Pierce). Equal amounts of protein were subjected to SDS-PAGE followed by electrotransfer to nitrocellulose membranes. Membranes were blocked with 5% nonfat milk in Tris-buffered saline and then probed with primary antibodies for p-S916-PKD1 (Millipore), p-S744/748-PKD1 (Cell Signaling Technology), or GAPDH (Enzo), followed by anti-mouse or anti-rabbit secondary antibodies conjugated to horseradish peroxidase (Bio-Rad). The bands were detected by incubating with the enhanced chemiluminescence (ECL) Western blotting detection reagent (Amersham Biosciences) and exposing to X-ray films.

[4] = read-out: IC50 radiometric PKD1
[5] = radiometric kinase activity assay, in vitro, read-out: IC50 PKD1

Compound | IC50 IMAP-FP PKD1 (PKD1 [1]) | IC50 [2, 4] [nM] | melting point | IC50 (PKD1 [1]) [nM] | IC50 [2, 5] [nM] | IC50 (PKD1 [3]) [nM] | cellular activity fold lower than kb-NB142-70 (PKD1 [3]) [fold]
Cc1ccc(S(=O)(=O)NN=C2CCNC(=O)c3oc4ccc(O)cc4c32)cc1 [kb-NB142-11, 7-Hydroxy-5-({[(4-methylphenyl)sulfonyl]amino}azamethylene)-2H,3H,4H-azepino[5,6-d]benzo[b]furan-1-one] |  |  | 220 to 224 °C | 38200 ± 1170 |  |  | 
Nc1ccc2[nH]c3c(c2c1)CCNC3=O [kb-NB142-08, 6-Amino-2,3,4,9-tetrahydro-1H-pyrido[3,4-b]indol-1-one] |  | 15700 ± 190 | 280 to 282 °C | 74400 ± 2200 |  |  | 
C=CCc1c(O)ccc2oc3c(c12)CCCNC3=O [kb-NB96-02, 6-Allyl-7-hydroxy-2,3,4,5-tetrahydro-[1]benzoxolo[2,3-c]azepin-1-one] |  | 1580 | 255 to 257 °C | 2400 ± 300 |  |  | 
O=C1NCCC(=NNc2ccccc2)c2c1oc1ccc(O)cc21 [kb-NB142-05, 7-Hydroxy-5-[(phenylamino)azamethylene]-2H,3H,4H-azepino[5,6-d]benzo[b]furan-1-one] |  | 1130 | 234 to 236 °C | 21700 ± 520 |  |  | 
O=C1NCCCc2c1oc1ccc(O)cc21 [CID755673, 7-Hydroxy-2,3,4,5-tetrahydro-[1]benzoxolo[2,3-c]azepin-1-one, reference compound] |  |  |  |  | 182 ± 27 | 11800 | 
O=C1NCCC(O)c2c1oc1ccc(O)cc21 (stereo not drawn) [kb-NB123-89, 5,7-Dihydroxy-2H,3H,4H,5H-azepino[5,6-d]benzo[b]furan-1-one] |  | 1230 ± 210 | 280 to 282 °C | 24100 ± 710 |  |  | 
C=CCOc1ccc2oc3c(c2c1Cl)CCCNC3=O [kb-NB96-50, 7-Allyloxy-6-chloro-2,3,4,5-tetrahydro-[1]benzoxolo[2,3-c]azepin-1-one] | not inhibitory |  | 192 to 194 °C |  |  |  | 
O=C1NCCCc2c1oc1cc(Cl)c(O)cc21 [kb-NB96-47-5, 8-Chloro-7-hydroxy-2,3,4,5-tetrahydro-[1]benzoxolo[2,3-c]azepin-1-one] |  |  | 327 to 332 °C | > 100000 |  |  | 
CC(=O)Nc1ccc2[nH]c3c(c2c1)CCCNC3=O [kb-NB123-94] | not inhibitory |  | > 300 °C |  |  |  | 
Nc1ccc2[nH]c3c(c2c1)CCCNC3=O [kb-NB142-01] |  | 9680 ± 1010 | 202 to 207 °C | 47100 ± 2500 |  |  | 
O=C1NCCSc2c1sc1ccc(O)c(I)c21 [kb-NB165-31, 3,4-Dihydro-9-hydroxy-10-iodo-[1]benzothieno[2,3-f]-1,4-thiazepin-5(2H)-one] |  | 110 ± 20 | 128 °C (dec.) |  | 114 | 8600 ± 2000 | 4
O=C1NCCCc2c1oc1ccc(O)c(Cl)c21 [kb-NB77-88, 6-Chloro-7-hydroxy-2,3,4,5-tetrahydro-[1]benzoxolo[2,3-c]azepin-1-one] |  | 890 | > 300 °C | 1400 ± 100 |  |  | 
O=C1NCCc2c1[nH]c1ccc(O)cc21 [kb-NB123-59, 2,3,4,9-Tetrahydro-6-hydroxy-1H-pyrido[3,4-b]indol-1-one] |  | 1570 ± 200 | 244 to 247 °C | 19400 ± 1400 |  |  | 

More lines, main results first:

IC50 IMAP-FP PKD1 (PKD1 [1]) | IC50 [2, 4] [nM] | melting point | IC50 (PKD1 [1]) [nM] | Compound | IC50 [2, 5] [nM] | IC50 (PKD1 [3]) [nM] | cellular activity fold lower than kb-NB142-70 (PKD1 [3]) [fold]
not inhibitory |  |  |  | O=C1NCCCc2c1[nH]c1ccc(OCc3ccccc3)cc21 [kb-NB123-53, 3,4,5,10-Tetrahydro-7-benzyloxy-azepino[3,4-b]indol-1(2H)-one] |  |  | 
 | 850 ± 110 | > 300 °C | 14900 ± 1200 | O=C1NCCC(=O)c2c1oc1ccc(O)cc21 [kb-NB123-63, 7-Hydroxy-2H,3H,4H-azepino[5,6-d]benzo[b]furan-1,5-dione] |  |  | 
not inhibitory |  | 298 to 301 °C |  | O=C1NCCCc2c1oc1cc(Cl)c(O)c(Cl)c21 [kb-NB96-43, 6,8-Dichloro-7-hydroxy-2,3,4,5-tetrahydro-[1]benzoxolo[2,3-c]azepin-1-one] |  |  | 
not inhibitory |  | > 300 °C |  | CC(=O)Nc1ccc2[nH]c3c(c2c1)CCNC3=O [kb-NB123-93, N-(2,3,4,9-Tetrahydro-1-oxo-1H-pyrido[3,4-b]indol-6-yl)-acetamide] |  |  | 
not inhibitory |  | 103 to 110 °C |  | O=C1NCCC(=NOCc2ccccc2)c2c1oc1ccc(O)cc21 [kb-NB142-10, 7-Hydroxy-5-[(phenylmethoxy)azamethylene]-2H,3H,4H-azepino[5,6-d]benzo[b]furan-1-one] |  |  | 
 | 240 | > 300 °C | 1300 ± 50 | O=C1NCCCc2c1oc1ccc(O)c(F)c21 [kb-NB96-21, 6-Fluoro-7-hydroxy-2,3,4,5-tetrahydro-[1]benzoxolo[2,3-c]azepin-1-one] |  |  | 
 | 240 | > 300 °C | 1000 ± 100 | C/C=C/c1c(O)ccc2oc3c(c12)CCCNC3=O [kb-NB96-30, 6-[(E)-2-(Prop-1-enyl)]-7-hydroxy-2,3,4,5-tetrahydro-[1]benzoxolo[2,3-c]azepin-1-one] |  |  | 
not inhibitory |  | 208 to 210 °C |  | O=C1NCCc2c1[nH]c1ccc(OCc3ccccc3)cc21 [kb-NB123-52, 2,3,4,9-Tetrahydro-6-benzyloxy-1H-pyrido[3,4-b]indol-1-one] |  |  | 
